Legend:
[1] = system: Heliothis virescens; experiment: Activity against Heliothis virescens; type: in vivo; conditions: young soya plants sprayed with 100 ppm active ingredient, first-stage caterpillars, 6 days later
Procedure: Young soya plants are sprayed with an aqueous emulsion spray mixture containing 100 ppm of active ingredient, when the spray coating has dried on they are colonised with 10 caterpillars of the first stage of Heliothis virescens and then placed in a plastic container. The percentage reduction of the population and of the feeding damage (% response) is determined 6 days later by comparing the total number of dead caterpillars and the feeding damage on the treated plants with those on the untreated plants.

| melting point | SMILES | efficacy: percentage reduction of the population and of the feeding damage (% response) [1] |
| --- | --- | --- |
| 252 to 254 °C | Fc1cccc(F)c1-c1ncc(-c2ccc(-c3ccc(C(F)(F)F)cc3)cc2)cn1 [Compound 1.2] |  |
| 207 to 208 °C | FC(F)(F)c1ccc(-c2ccc(-c3cnc(-c4c(Cl)cccc4Cl)nc3)cc2)cc1 [Compound 1.3] |  |
| 179 to 181 °C | FC(F)(F)Oc1ccc(-c2ccc(-c3cnc(-c4c(Cl)cccc4Cl)nc3)cc2)cc1 [Compound 1.4] |  |
| 224 to 226 °C | Clc1ccc(-c2ccc(-c3cnc(-c4c(Cl)cccc4Cl)nc3)cc2)cc1Cl [Compound 1.6] |  |
| 242 to 244 °C | COc1ccc(-c2ccc(-c3cnc(-c4c(Cl)cccc4Cl)nc3)cc2)cc1 [Compound 1.7] |  |
| 205 to 220 °C | Clc1ccc(-c2ccc(-c3cnc(-c4c(Cl)cccc4Cl)nc3)cc2)cc1 [Compound 1.8] |  |
| > 220 °C | Clc1cc(Cl)cc(-c2ccc(-c3cnc(-c4c(Cl)cccc4Cl)nc3)cc2)c1 [Compound 1.9] |  |
| 200 to 202 °C | CC(C)(C)c1ccc(-c2ccc(-c3cnc(-c4c(Cl)cccc4Cl)nc3)cc2)cc1 [Compound 1.10] |  |
| 186 to 189 °C | Fc1ccc(-c2ccc(-c3cnc(-c4c(F)cccc4Cl)nc3)cc2)cc1Cl [Compound 1.11] |  |
| 160 to 163 °C | Fc1cccc(Cl)c1-c1ncc(-c2ccc(-c3ccc(OC(F)(F)F)cc3)cc2)cn1 [Compound 1.12] |  |
| 196 to 199 °C | Fc1cccc(Cl)c1-c1ncc(-c2ccc(-c3ccc(Cl)c(Cl)c3)cc2)cn1 [Compound 1.13] |  |
| 187 to 190 °C | Fc1cccc(Cl)c1-c1ncc(-c2ccc(-c3cccc(C(F)(F)F)c3)cc2)cn1 [Compound 1.14] |  |
| 176 to 179 °C | COc1ccc(-c2ccc(-c3cnc(-c4c(F)cccc4Cl)nc3)cc2)cc1 [Compound 1.15] |  |
|  | Fc1cccc(Cl)c1-c1ncc(-c2ccc(-c3ccc(C(F)(F)F)cc3)cc2)cn1 [Compound 1.17] | over 80% |
| 217 to 218 °C | Fc1cccc(F)c1-c1ncc(-c2ccc(-c3cccc(C(F)(F)F)c3)cc2)cn1 [Compound 1.18] |  |
| 215 to 216 °C | Fc1cccc(F)c1-c1ncc(-c2ccc(-c3ccc(OC(F)(F)F)cc3)cc2)cn1 [Compound 1.19, 2-(2,6-difluorophenyl)-5-(4′-trifluoromethoxybiphenyl-4-yl)-pyrimidine] |  |
| 150 to 151 °C | COc1ccccc1-c1ccc(-c2cnc(-c3c(F)cccc3F)nc2)cc1 [Compound 1.20] |  |
| > 260 °C | Fc1cccc(F)c1-c1ncc(-c2ccc(-c3ccc(-c4ccccc4)cc3)cc2)cn1 [Compound 1.22] |  |
| 212 to 213 °C | Fc1ccc(-c2ccc(-c3cnc(-c4c(F)cccc4F)nc3)cc2)cc1 [Compound 1.23] |  |
| 100 to 102 °C | Fc1cccc(F)c1-c1ncc(-c2ccc(-c3ccccc3C(F)(F)F)cc2)cn1 [Compound 1.24] |  |
| 220 to 222 °C | Fc1cccc(F)c1-c1ncc(-c2ccc(-c3ccc(Cl)cc3)cc2)cn1 [Compound 1.25] |  |
| 178 to 179 °C | Fc1cccc(F)c1-c1ncc(-c2ccc(-c3cccc(Cl)c3)cc2)cn1 [Compound 1.37] |  |
| 146 to 147 °C | CCOc1nc(-c2c(F)cccc2F)ncc1-c1ccc(-c2ccc(OC(F)(F)F)cc2)cc1 [Compound 1.58] |  |
| 170 to 172 °C | CCOc1nc(-c2c(F)cccc2F)ncc1-c1ccc(-c2ccc(C(F)(F)F)cc2)cc1 [Compound 1.59] |  |

| melting point | SMILES | efficacy: percentage reduction of the population and of the feeding damage (% response) [1] |
| --- | --- | --- |
| 154 to 155 °C | CCOc1nc(-c2c(F)cccc2F)ncc1-c1ccc(-c2cc(Cl)cc(Cl)c2)cc1 [Compound 1.60] |  |
| 189 to 190 °C | CCNc1nc(-c2c(F)cccc2F)ncc1-c1ccc(-c2ccc(C(F)(F)F)cc2)cc1 [Compound 1.67] |  |
| 202 to 203 °C | CCNc1nc(-c2c(F)cccc2F)ncc1-c1ccc(-c2cc(Cl)cc(Cl)c2)cc1 [Compound 1.68] |  |
| 146 to 147 °C | CN(C)c1nc(-c2c(F)cccc2F)ncc1-c1ccc(-c2ccc(OC(F)(F)F)cc2)cc1 [Compound 1.69] |  |
| 166 to 168 °C | CN(C)c1nc(-c2c(F)cccc2F)ncc1-c1ccc(-c2ccc(C(F)(F)F)cc2)cc1 [Compound 1.70] |  |
| 200 to 202 °C | CN(C)c1nc(-c2c(F)cccc2F)ncc1-c1ccc(-c2cc(Cl)cc(Cl)c2)cc1 [Compound 1.71] |  |
| 127 to 128 °C | CCSc1nc(-c2c(F)cccc2F)ncc1-c1ccc(-c2ccc(OC(F)(F)F)cc2)cc1 [Compound 1.72] |  |
| 145 to 146 °C | CCSc1nc(-c2c(F)cccc2F)ncc1-c1ccc(-c2ccc(C(F)(F)F)cc2)cc1 [Compound 1.73] |  |
| 154 to 156 °C | CCSc1nc(-c2c(F)cccc2F)ncc1-c1ccc(-c2cc(Cl)cc(Cl)c2)cc1 [Compound 1.74] |  |
| 133 to 134 °C | Fc1ccc(-c2ccc(-c3ccnc(-c4c(F)cccc4F)n3)cc2)cc1Cl [Compound 2.1] |  |
| 141 to 142 °C | Fc1cccc(F)c1-c1nccc(-c2ccc(-c3ccc(C(F)(F)F)cc3)cc2)n1 [Compound 2.2, 2-(2,6-difluorophenyl)-4-(4′-trifluoromethylbiphenyl-4-yl)-pyrimidine] |  |
| 102 to 103 °C | Fc1cccc(F)c1-c1nccc(-c2ccc(-c3ccc(OC(F)(F)F)cc3)cc2)n1 [Compound 2.3] |  |
| 116 to 126 °C | Fc1cccc(F)c1-c1nccc(-c2ccc(-c3cc(Cl)cc(Cl)c3)cc2)n1 [Compound 2.5] |  |
| 134 to 140 °C | Fc1cccc(F)c1-c1nccc(-c2ccc(-c3ccc(Cl)c(Cl)c3)cc2)n1 [Compound 2.6] |  |
| 258 to 259 °C | Fc1cccc(F)c1-c1nccc(-c2ccc(-c3ccc(-c4ccccc4)cc3)cc2)n1 [Compound 2.7] |  |
| 145 to 146 °C | Fc1ccc(-c2ccc(-c3ccnc(-c4c(F)cccc4F)n3)cc2)cc1 [Compound 2.8] |  |
| 86 to 87 °C | Fc1cccc(F)c1-c1nccc(-c2ccc(-c3ccc(Cl)cc3Cl)cc2)n1 [Compound 2.9] |  |
| 82 to 83 °C | Fc1cccc(F)c1-c1nccc(-c2ccc(-c3cccc(Cl)c3)cc2)n1 [Compound 2.10] |  |
| 167 to 168 °C | Fc1cccc(F)c1-c1nccc(-c2ccc(-c3ccc(Cl)cc3)cc2)n1 [Compound 2.11] |  |
| 179 to 180 °C | Fc1cccc(F)c1-c1nccc(-c2ccc(-c3ccccc3C(F)(F)F)cc2)n1 [Compound 2.12] |  |
| 146 to 148 °C | Fc1cccc(F)c1C1N=CC=C(c2ccc(Br)cc2)N1Cl (stereo not drawn) [Compound 3.354, 4-(4-bromophenyl)-2-(2,6-difluorophenyl)-3-chloropyrimidine] |  |
| 146 to 148 °C | N#CN1C(c2ccc(Br)cc2)=CC=NC1c1c(F)cccc1F (stereo not drawn) [Compound 3.355, 4-(4-bromophenyl)-3-cyano-2-(2,6-difluorophenyl)-pyrimidine] |  |
| 193 to 194 °C | Fc1cccc(F)c1-c1ncc(-c2ccc(Br)cc2)cn1 [Compound P1.3, 5-(4-bromophenyl)-2-(2,6-difluorophenyl)-pyrimidine] |  |
| 130 to 131 °C | Fc1cccc(F)c1-c1nccc(-c2ccc(Br)cc2)n1 [Compound P1.5, 4-(4-bromophenyl)-2-(2,6-difluorophenyl)-pyrimidine] |  |
